# In patent US11000033B2, “Ketone or oxime compound, and herbicide” (NISSAN CHEMICAL CORPORATION, priority 2014, dated 2021):
# What was measured:
# Assay type in all cases: in vivo
# [1] = tested on: Echinochloa oryzacola Vasing.; assay: Test Example 1: herbicidal activity, application before weed generation in submerged conditions (symbol A); conditions: application herbicide amount 320 g/ha
# How it was run: (§1)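 In a flooded pot test with alluvial soil, the emulsion-formulated compound was diluted with water to a predetermined amount and applied to the floodwater immediately on the sowing day. Pots were held in a greenhouse at 25–30 °C for 3 weeks before each weed was rated.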
# Scirpus juncoides [2] = assay: Test Example 1: herbicidal activity, application before weed generation in submerged conditions (symbol B); conditions: application herbicide amount 320 g/ha
# How it was run: as §1
# Monochoria vaginalis [3] = assay: Test Example 1: herbicidal activity, application before weed generation in submerged conditions (symbol C); conditions: application herbicide amount 320 g/ha
# How it was run: as §1
# transplanted rice plant = assay: Test Example 1: effect on crop, application before weed generation in submerged conditions (symbol a); conditions: application herbicide amount 320 g/ha
# How it was run: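 Rice at 2.5 leaf stage transplanted into submerged soil (4 cm depth) sown with three weed species; herbicide applied before weed emergence.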
# [4] = tested on: Echinochloa oryzacola Vasing.; assay: Test Example 2: herbicidal activity, application during weed generation in submerged conditions (symbol A); conditions: Table 23; application herbicide amount 320 g/ha; grade 0-5 by criteria of Test Example 1
# How it was run: (§2)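 Alluvial soil in pots was flooded to a 4 cm water depth and sown with a mix of the three weed species, then grown in a greenhouse at 25° C. to 30° C. At the one- to two-leaf stage, an emulsifiable formulation diluted in water to a set dose was applied to the water surface. Effects were scored visually 3 weeks later.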
# Scirpus juncoides [5] = assay: Test Example 2: herbicidal activity, application during weed generation in submerged conditions (symbol B); conditions: Table 23; application herbicide amount 320 g/ha; grade 0-5 by criteria of Test Example 1
# How it was run: as §2
# Monochoria vaginalis [6] = assay: Test Example 2: herbicidal activity, application during weed generation in submerged conditions (symbol C); conditions: Table 23; application herbicide amount 320 g/ha; grade 0-5 by criteria of Test Example 1
# How it was run: as §2
# [7] = tested on: Echinochloa crus-galli var. crus-galli; assay: Test Example 3: herbicidal effect by foliage application, Wagner pot (symbol H); conditions: application herbicide amount 320 g/ha
# How it was run: (§3)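 Weeds and rice were sown in alluvial soil under 0.1–0.5 cm of standing water and grown for 14 days in a 25–30 °C greenhouse. An emulsion of the compound, diluted in water to a set dose, was sprayed evenly onto the foliage. Effect was scored against fixed criteria 3 weeks after treatment.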
# Leptochloa chinensis = assay: Test Example 3: herbicidal effect by foliage application, Wagner pot (symbol D); conditions: application herbicide amount 320 g/ha
# How it was run: as §3
# Cyperus difformis = assay: Test Example 3: herbicidal effect by foliage application, Wagner pot (symbol E); conditions: application herbicide amount 320 g/ha
# How it was run: as §3
# [8] = tested on: directly sowed rice plant; assay: Test Example 3: effect on crop by foliage application, Wagner pot (symbol b); conditions: application herbicide amount 320 g/ha
# How it was run: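 Alluvial soil in a 1/10000-are Wagner pot was flooded to a water depth of 0.1–0.5 cm. Echinochloa crus-galli var. crus-galli, Leptochloa chinensis, Cyperus difformis and rice were sown into it and grown in a greenhouse at 25–30 °C.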
# Digitaria ciliaris = assay: Test Example 5: herbicidal effect by foliage application, plastic box (symbol F); conditions: 320 g/ha, 3 weeks after application
# How it was run: (§4)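 Greenhouse foliar test: seedlings at 14 days, grown 25° C. to 30° C. in sterilized diluvial soil; compound applied as an aqueous dilution of an emulsion; response read 3 weeks after spraying.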
# Setaria viridis = assay: Test Example 5: herbicidal effect by foliage application, plastic box (symbol G); conditions: 320 g/ha, 3 weeks after application
# How it was run: as §4
# [9] = tested on: Echinochloa crus-galli var. crus-galli; assay: Test Example 5: herbicidal effect by foliage application, plastic box (symbol H); conditions: 320 g/ha, 3 weeks after application
# How it was run: as §4
# Avena fatua = assay: Test Example 5: herbicidal effect by foliage application, plastic box (symbol I); conditions: 320 g/ha, 3 weeks after application
# How it was run: as §4
# Alopecurus myosuroides = assay: Test Example 5: herbicidal effect by foliage application, plastic box (symbol J); conditions: 320 g/ha, 3 weeks after application
# How it was run: as §4
# Lolium multiflorum Lam. = assay: Test Example 5: herbicidal effect by foliage application, plastic box (symbol K); conditions: 320 g/ha, 3 weeks after application
# How it was run: as §4
# Apera spica-venti = assay: Test Example 5: herbicidal effect by foliage application, plastic box (symbol L); conditions: 320 g/ha, 3 weeks after application
# How it was run: as §4
# Abutilon theophrasti = assay: Test Example 5: herbicidal effect by foliage application, plastic box (symbol M); conditions: 320 g/ha, 3 weeks after application
# How it was run: as §4
# Amaranthus retroflexus = assay: Test Example 5: herbicidal effect by foliage application, plastic box (symbol N); conditions: 320 g/ha, 3 weeks after application
# How it was run: as §4
# Chenopodium album = assay: Test Example 5: herbicidal effect by foliage application, plastic box (symbol O); conditions: 320 g/ha, 3 weeks after application
# How it was run: as §4
# Stellaria media = assay: Test Example 5: herbicidal effect by foliage application, plastic box (symbol P); conditions: 320 g/ha, 3 weeks after application
# How it was run: as §4
# Galium spurium = assay: Test Example 5: herbicidal effect by foliage application, plastic box (symbol Q); conditions: 320 g/ha, 3 weeks after application
# How it was run: as §4
# Veronica persica = assay: Test Example 5: herbicidal effect by foliage application, plastic box (symbol R); conditions: 320 g/ha, 3 weeks after application
# How it was run: as §4
# corn = assay: Test Example 5: effect on crop by foliage application, plastic box (symbol c); conditions: 320 g/ha, 3 weeks after application
# How it was run: (§5)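 Seeds were sown in spots in sterilized diluvial soil held in a plastic box 21 cm × 13 cm × 7 cm deep, covered with about 1.5 cm of soil, and grown in a greenhouse at 25° C. to 30° C.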
# soybean = assay: Test Example 5: effect on crop by foliage application, plastic box (symbol d); conditions: 320 g/ha, 3 weeks after application
# How it was run: as §5
# rice plant = assay: Test Example 5: effect on crop by foliage application, plastic box (symbol b); conditions: 320 g/ha, 3 weeks after application
# How it was run: as §5
# wheat = assay: Test Example 5: effect on crop by foliage application, plastic box (symbol e); conditions: 320 g/ha, 3 weeks after application
# How it was run: as §5
# beet = assay: Test Example 5: effect on crop by foliage application, plastic box (symbol f); conditions: 320 g/ha, 3 weeks after application
# How it was run: as §5
# rapeseed = assay: Test Example 5: effect on crop by foliage application, plastic box (symbol g); conditions: 320 g/ha, 3 weeks after application
# How it was run: as §5
Structure (SMILES),"Herbicidal effect grade, A: Echinochloa oryzacola Vasing. [1]","Herbicidal effect grade, B: Scirpus juncoides (Scirpus juncoides [2])","Herbicidal effect grade, C: Monochoria vaginalis (Monochoria vaginalis [3])","Effect grade on crop, a: transplanted rice plant (transplanted rice plant)","Herbicidal effect grade, A: Echinochloa oryzacola Vasing. [4]","Herbicidal effect grade, B: Scirpus juncoides (Scirpus juncoides [5])","Herbicidal effect grade, C: Monochoria vaginalis (Monochoria vaginalis [6])","herbicidal effect on H (Echinochloa crus-galli var. crus-galli), grade 0-5 [7]","herbicidal effect on D (Leptochloa chinensis), grade 0-5 (Leptochloa chinensis)","herbicidal effect on E, grade 0-5 (Cyperus difformis)","effect on crop b (directly sowed rice plant), grade 0-5 [8]","F: Digitaria ciliaris, herbicidal effect (criteria of Test Example 1) (Digitaria ciliaris)","G: Setaria viridis, herbicidal effect (criteria of Test Example 1) (Setaria viridis)","H: Echinochloa crus-galli var. crus-galli, herbicidal effect (criteria of Test Example 1) [9]","I: Avena fatua, herbicidal effect (criteria of Test Example 1) (Avena fatua)","J: Alopecurus myosuroides, herbicidal effect (criteria of Test Example 1) (Alopecurus myosuroides)","K: Lolium multiflorum Lam., herbicidal effect (criteria of Test Example 1) (Lolium multiflorum Lam.)","L: Apera spica-venti, herbicidal effect (criteria of Test Example 1) (Apera spica-venti)","M: Abutilon theophrasti, herbicidal effect (criteria of Test Example 1) (Abutilon theophrasti)","N: Amaranthus retroflexus, herbicidal effect (criteria of Test Example 1) (Amaranthus retroflexus)",other results
CCCC=Cc1cc(C)c(C2=C(O)CC(CC(C)=NOC)C2=O)c(C)c1 (stereo not drawn) [6-071],4 (Herbicidal ratio of 70% or higher and lower than 90%),0 (Herbicidal ratio of 5% or lower (almost no effect)),0 (Herbicidal ratio of 5% or lower (almost no effect)),0 (Herbicidal ratio of 5% or lower (almost no effect)),2 (Herbicidal ratio of 20% or higher and lower than 40%),0 (Herbicidal ratio of 5% or lower (almost no effect)),0 (Herbicidal ratio of 5% or lower (almost no effect)),4 (Herbicidal ratio of 70% or higher and lower than 90%),5 (Herbicidal ratio of 90% or more (almost completely withered)),0 (Herbicidal ratio of 5% or lower (almost no effect)),1 (Herbicidal ratio of 5% or higher and lower than 20%),0 (Herbicidal ratio of 5% or lower (almost no effect)),0 (Herbicidal ratio of 5% or lower (almost no effect)),0 (Herbicidal ratio of 5% or lower (almost no effect)),0 (Herbicidal ratio of 5% or lower (almost no effect)),3 (Herbicidal ratio of 40% or higher and lower than 70%),4 (Herbicidal ratio of 70% or higher and lower than 90%),2 (Herbicidal ratio of 20% or higher and lower than 40%),0 (Herbicidal ratio of 5% or lower (almost no effect)),0 (Herbicidal ratio of 5% or lower (almost no effect)),"O: Chenopodium album, herbicidal effect (criteria of Test Example 1) (Chenopodium album): 0 (Herbicidal ratio of 5% or lower (almost no effect)); P: Stellaria media, herbicidal effect (criteria of Test Example 1) (Stellaria media): 0 (Herbicidal ratio of 5% or lower (almost no effect)); Q: Galium spurium, herbicidal effect (criteria of Test Example 1) (Galium spurium): 0 (Herbicidal ratio of 5% or lower (almost no effect)); R: Veronica persica, herbicidal effect (criteria of Test Example 1) (Veronica persica): 0 (Herbicidal ratio of 5% or lower (almost no effect)); c: corn, effect on crop (criteria of Test Example 1) (corn): 0 (Herbicidal ratio of 5% or lower (almost no effect)); d: soybean, effect on crop (criteria of Test Example 1) (soybean): 0 (Herbicidal ratio of 5% or lower (almost no effect)); b: directly sowed rice plant, effect on crop (criteria of Test Example 1) (rice plant): 1 (Herbicidal ratio of 5% or higher and lower than 20%); e: wheat, effect on crop (criteria of Test Example 1) (wheat): 2 (Herbicidal ratio of 20% or higher and lower than 40%); f: beet, effect on crop (criteria of Test Example 1) (beet): 0 (Herbicidal ratio of 5% or lower (almost no effect)); g: rapeseed, effect on crop (criteria of Test Example 1) (rapeseed): 0 (Herbicidal ratio of 5% or lower (almost no effect))"
CON=C(C)CC1CC(O)=C(c2c(C)cc(C=Cc3ccccc3)cc2C)C1=O (stereo not drawn) [6-072],4 (Herbicidal ratio of 70% or higher and lower than 90%),0 (Herbicidal ratio of 5% or lower (almost no effect)),0 (Herbicidal ratio of 5% or lower (almost no effect)),0 (Herbicidal ratio of 5% or lower (almost no effect)),1 (Herbicidal ratio of 5% or higher and lower than 20%),0 (Herbicidal ratio of 5% or lower (almost no effect)),0 (Herbicidal ratio of 5% or lower (almost no effect)),5 (Herbicidal ratio of 90% or more (almost completely withered)),5 (Herbicidal ratio of 90% or more (almost completely withered)),0 (Herbicidal ratio of 5% or lower (almost no effect)),0 (Herbicidal ratio of 5% or lower (almost no effect)),0 (Herbicidal ratio of 5% or lower (almost no effect)),4 (Herbicidal ratio of 70% or higher and lower than 90%),1 (Herbicidal ratio of 5% or higher and lower than 20%),3 (Herbicidal ratio of 40% or higher and lower than 70%),0 (Herbicidal ratio of 5% or lower (almost no effect)),2 (Herbicidal ratio of 20% or higher and lower than 40%),0 (Herbicidal ratio of 5% or lower (almost no effect)),0 (Herbicidal ratio of 5% or lower (almost no effect)),0 (Herbicidal ratio of 5% or lower (almost no effect)),"O: Chenopodium album, herbicidal effect (criteria of Test Example 1) (Chenopodium album): 0 (Herbicidal ratio of 5% or lower (almost no effect)); P: Stellaria media, herbicidal effect (criteria of Test Example 1) (Stellaria media): 0 (Herbicidal ratio of 5% or lower (almost no effect)); Q: Galium spurium, herbicidal effect (criteria of Test Example 1) (Galium spurium): 0 (Herbicidal ratio of 5% or lower (almost no effect)); R: Veronica persica, herbicidal effect (criteria of Test Example 1) (Veronica persica): 0 (Herbicidal ratio of 5% or lower (almost no effect)); c: corn, effect on crop (criteria of Test Example 1) (corn): 3 (Herbicidal ratio of 40% or higher and lower than 70%); d: soybean, effect on crop (criteria of Test Example 1) (soybean): 0 (Herbicidal ratio of 5% or lower (almost no effect)); b: directly sowed rice plant, effect on crop (criteria of Test Example 1) (rice plant): 2 (Herbicidal ratio of 20% or higher and lower than 40%); e: wheat, effect on crop (criteria of Test Example 1) (wheat): 0 (Herbicidal ratio of 5% or lower (almost no effect)); f: beet, effect on crop (criteria of Test Example 1) (beet): 0 (Herbicidal ratio of 5% or lower (almost no effect)); g: rapeseed, effect on crop (criteria of Test Example 1) (rapeseed): 0 (Herbicidal ratio of 5% or lower (almost no effect))"
